Test results reported in patent publication US7517654B2, “Peptide and a derivative thereof promoting cell adhesion and spreading” (Seoul National University Industry Foundation, priority 2004, dated 2009).

What was measured:
HOK-16B cells [1] = experiment: Cell adhesion assay on coated plates (crystal violet absorbance at 570 nm / cell counting); assay type: cell-based, human; details: 1 h; for cell adhesion activity of synthetic peptides / cell adhesion activity compared to the peptide P4 control: HOK-16B cells; for cell adhesion activity of synthetic peptides: plates coated with 10-50 μg/well peptide, serum-free medium; for cell adhesion activity compared to the peptide P4 control: 10 μg/well truncated or Ala-substituted peptide coating; for cell adhesion activity of rLG proteins: HOK-16B cells on rLG protein-coated plates, compared to BSA control
Description: The cell adhesion assay was performed according to a method reported by Okazaki et al. (J. Biol. Chem., 277:37070, 2002). In detail, 24-well culture plates (Nunc, Roskilde, Denmark) were coated with various amounts of rLG proteins at 4° C. overnight. The peptides were also coated on plates by drying overnight. The substrate-coated on the plates were blocked by adding 1% heat-inactivated bovine serum albumin (BSA) in PBS for 1 h at 37° C. and washed twice with PBS. The cells in the Experimental Example 1, detached by 0.05% tyrpsin and 0.53 mM EDTA in PBS and resuspended in culture media, were added (1×10^5 cells/500 μl) to each plate and incubated for 1 h at 37° C. After incubation, unattached cells were removed by rinsing twice with PBS. The attached cells were fixed with 10% formalin in PBS for 15 min, rinsed twice with PBS, and stained with 0.5% crystal violet for 1 h. The plates were gently rinsed with DDW three times and lysed with 2% SDS for 5 min. Absorbance was measured at 570 nm in a Bio-Rad Model 550 microplate reader (BioRad).
The cell adhesion and spreading activities on peptide-coated plates were examined using HOK-16B cells by the same method as Experimental Example 2. 24-well plates were coated with 10, 20, 30, 40 and 50 μg/well peptides P1 to P5, respectively. HOK-16B cells were added to peptide-coated plates and cultured for 1 h in serum-free medium for 1 hr. After the unbound cells were washed off, adherent cells were fixed and stained with crystal violet, and then the stained cells were analyzed. Absorbance was measured at 570 nm in a microplate reader. BSA and the rLG3 were used as negative control and positive control, respectively.
It was observed that peptide P4 promotes strong cell adhesion and spreading activities and binds to integrin α3β1 in the Example 4. Therefore, to determine the biologically active core sequences in peptide P4, five synthetic peptides (P4 D-I to P4 D-V), which are C-terminal truncated peptides from the peptide P4, and six synthetic peptides (P4 D-N1 to P4 D-N6), which are N-terminal truncated peptides from the peptide P4 were prepared (FIG. 6A) and examined for HOK-16B cell adhesion and spreading activities on peptide-coated plates by the present inventors. 24-well plates were coated with 10 μg/well C-terminal truncated peptides or N-terminal truncated peptides, and HOK-16B cells were added to the plates, and then cultured in serum-free medium for 1 hr. After the unbound cells were washed off, the adherent cells were fixed to stain with crystal violet, and the stained cells were analyzed. Absorbance was measured at 570 nm in a microplate reader. Peptide P4 and BSA were used as the positive and negative controls, respectively.
24-well plates were coated with 10 μg/well peptides, and HOK-16B cells were added to the plates, and then cultured in serum-free medium for 1 hr. After the unbound cells were washed off, the adherent cells were fixed to stain with crystal violet, and the stained cells were analyzed. Peptide P4 and BSA were used as the positive and negative controls, respectively. The results were expressed as mean ±SD of the four independent experiments.

HOK-16B cells [2] = experiment: Cell spreading activity assay on coated plates; assay type: cell-based, human; details: for cell spreading activity compared to the peptide P4 control: HOK-16B cells, 10 μg/well truncated or Ala-substituted peptide coating, 1 h; for cell spreading activity: HOK-16B cells on rLG protein- or peptide P1-P5-coated plates
Description: To identify spreading cells, attached cells were fixed with 10% formalin in PBS for 15 min, rinsed twice with PBS, and stained with 0.005% crystal violet for 1 h. The plates were then gently rinsed with DDW. To ensure a representative count, each plate was divided into quarters, two fields per quarter were photographed using an Olympus BX51 microscope at 100× magnification. Cells that had adopted a flattened, polygonal shape, with filopodia-and lamellipodia-like extensions were considered to be spreading cells. In contrast, cells that resisted being washed and remained tethered to the plate surface were considered to be non-spreading cells.
To examine the adhesion activity of peptide P4 in detail, the inventors examined whether the adherent cells were tethered to the substratum or spread over the substratum. The BSA and rLG3 were used as the negative control and positive control, respectively, the percentage of cells displaying a spreading morphology was quantified by dividing the number of spreading cells by the total number of bound cells.

Row | Molecule | cell adhesion activity of synthetic peptides (HOK-16B cells [1]) | cell adhesion activity compared to the peptide P4 control (HOK-16B cells [1]) | cell adhesion activity of rLG proteins (HOK-16B cells [1]) | cell spreading activity (HOK-16B cells [2]) | further results
1 | P3: 12-mer peptide, residues 1305-1316 of SEQ ID NO: 2 (GGCSLNKPPFLM; listed as Homo sapiens) | no adhesion activity |  |  |  | 
2 | peptide P4 D-I: peptide P4 with a deletion of the C-terminal Arg residue (PPFLMLLKGST) |  | significantly lower cell adhesion activity than the peptide P4 control |  |  | 
3 | peptide P5: 12-mer peptide, residues 1321-1332 of SEQ ID NO: 2 (STRFNKTKTFRI; listed as Homo sapiens) | very weak dose-dependent adhesion activity at concentrations ≧25 μg/well |  |  |  | 
4 | P2: 12-mer peptide, residues 1297-1308 of SEQ ID NO: 2 (SLKRDVSLGGCS; listed as Homo sapiens) | no adhesion activity |  |  |  | 
5 | peptide P4-S1: peptide P4 in which the 8th Lys of SEQ ID NO: 1 is replaced by Ala (PPFLMLLAGSTR) |  | unaffected |  |  | cell spreading activity compared to the peptide P4 control (HOK-16B cells [2]): unaffected
6 | peptide P4 D-N2: peptide P4 with deletions of the N-terminal two Pro residues (FLMLLKGSTR) |  | showed a significantly lower cell adhesion and spreading activities |  |  | cell spreading activity compared to the peptide P4 control (HOK-16B cells [2]): showed a significantly lower cell adhesion and spreading activities
7 | peptide P1: 12-mer peptide, residues 1293-1304 of human laminin α3 chain SEQ ID NO: 2; control peptide (LTSNSLKRDVSL; listed as Homo sapiens) | no adhesion activity |  |  |  | 
8 | peptide P4 D-N1: peptide P4 with a deletion of one of the N-terminal two Pro residues (PFLMLLKGSTR) |  | did not show a significantly lower cell adhesion and spreading activities |  |  | cell spreading activity compared to the peptide P4 control (HOK-16B cells [2]): did not show a significantly lower cell adhesion and spreading activities
9 | rLG1: recombinant His6-tagged LG1 domain, residues 782-978 of human laminin α3 chain, expressed in E. coli (protein, listed as Homo sapiens, His6 tag, recombinant His6-tagged LG1 domain, residues 782-978 of human laminin α3 chain, expressed in E. coli) RLPNDLEDLKGYTSLSLFLQRPNSRENGGTENMFVMYLGNKDASRDYIGMAVVDGQLTCVYNLGDREAELQVDQILTKSETKEAVMDRVKFQRIYQFARLNYTKGATSSKPETPGVYDMDGRNSNTLLNLDPENVVFYVGGYPPDFKLPSRLSFPPYKGCIELDDLNENVLSLYNFKKTFNLNTTEVEPCRRRKEES |  |  | marginal adhesion activity | minimal cell spreading | 
10 | rLG2: recombinant His6-tagged LG2 domain, residues 959-1148 of human laminin α3 chain (protein, listed as Homo sapiens, His6 tag, recombinant His6-tagged LG2 domain, residues 959-1148 of human laminin α3 chain) KTFNLNTTEVEPCRRRKEESDKNYFEGTGYARVPTQPHAPIPTFGQTIQTTVDRGLLFFAENGDRFISLNIEDGKLMVRYKLNSELPKERGVGDAINNGRDHSIQIKIGKLQKRMWINVDVQNTIIDGEVFDFSTYYLGGIPIAIRERFNISTPAFRGCMKNLKKTSGVVRLNDTVGVTKKCSEDWKLVR |  |  | marginal adhesion activity | minimal cell spreading | 
11 | rLG4: recombinant His6-tagged LG4 domain, residues 1352-1555 of human laminin α3 chain (protein, listed as Homo sapiens, His6 tag, recombinant His6-tagged LG4 domain, residues 1352-1555 of human laminin α3 chain) DACSPLPKTQANHGALQFGDIPTSHLLFKLPQELLKPRSQFAVDMQTTSSRGLVFHTGTKNSFMALYLSKGRLVFALGTDGKKLRIKSKEKCNDGKWHTVVFGHDGEKGRLVVDGLRAREGSLPGNSTISIRAPVYLGSPPSGKPKSLPTNSFVGCLKNFQLDSKPLYTPSSSFGVSSCLGGPLEKGIYFSEEGGHVVLAHSVL |  |  | marginal adhesion activity | minimal cell spreading | 
12 | rLG5: recombinant His6-tagged LG5 domain, residues 1522-1713 of human laminin α3 chain (protein, listed as Homo sapiens, His6 tag, recombinant His6-tagged LG5 domain, residues 1522-1713 of human laminin α3 chain) SSSFGVSSCLGGPLEKGIYFSEEGGHVVLAHSVLLGPEFKLVFSIRPRSLTGILIHIGSQPGKHLCVYLEAGKVTASMDSGAGGTSTSVTPKQSLCDGQWHSVAVTIKQHILHLELDTDSSYTAGQIPFPPASTQEPLHLGGAPANLTTLRIPVWKSFFGCLRNIHVNHIPVPVTEALEVQGPVSLNGCPDQ |  |  | marginal adhesion activity | minimal cell spreading | 
